Results on 13 compounds are retold here after patent publication US20110003820A1, “PYRAZOLOPYRIMIDINES, A PROCESS FOR THEIR PREPARATION AND THEIR USE AS MEDICINE” (MERZ PHARMA GMBH & CO. KGaA, priority 2008, published 2011).

In test [1] the target is T1, transmembrane allosteric modulatory sites of mGluR5 receptors in cortical membranes (Rattus norvegicus, UniProt P31424).
T1 construct: from tissue; host or cells: cortex of male Sprague-Dawley rats, membrane preparation
In words: [3H]-MMPEP binding assay in rat cortical membranes. As to conditions: 3H-MMPEP radioligand, read-out: mGluR5_M_MPEP_r_CTX_IC50. Here is the method: Binding Assays for the Characterization of mGluR5 Antagonists
Preparation of Rat Cortical Membranes:
Male Sprague-Dawley rats (200-250 g) are decapitated and their brains are removed rapidly. The cortex is dissected and homogenized in 20 volumes of ice-cold 0.32 M sucrose using a glass-Teflon homogenizer. The homogenate is centrifuged at 1000×g for 10 minutes. The pellet is discarded and the supernatant centrifuged at 20,000×g for 20 minutes. The resulting pellet is re-suspended in 20 volumes of distilled water and centrifuged for 20 minutes at 8000×g. Then the supernatant and the buffy coat are centrifuged at 48,000×g for 20 minutes in the presence of 50 mM Tris-HCl, pH 8.0. The pellet is then re-suspended and centrifuged two to three more times at 48,000×g for 20 minutes in the presence of 50 mM Tris-HCl, pH 8.0. All centrifugation steps are carried out at 4° C. After resuspension in 5 volumes of 50 mM Tris-HCl, pH 8.0 the membrane suspension is frozen rapidly at −80° C.
On the day of assay the membranes are thawed and washed four times by resuspension in 50 mM Tris-HCl, pH 8.0 and centrifugation at 48,000×g for 20 minutes and finally re-suspended in 50 mM Tris-HCl, pH 7.4. The amount of protein in the final membrane preparation (500-700 μg/ml) is determined according to the method of Lowry (Lowry O. H. et al. 1951. J. Biol. Chem. 193, 256-275).
Incubations are started by adding[^3H]-MPEP (50.2 Ci/mmol, 5 nM, Tocris, GB) to vials with 125-250 μg protein (total volume 0.25 ml) and various concentrations of the agents.
Alternatively, assays are performed with [^3H]-MMPEP (2-(3-methoxyphenylethynyl)-6-methylpyridine hydrochloride) as radioligand. The incubations are continued at room temperature for 60 minutes (equilibrium is achieved under the conditions used). […] Incubations are terminated using a Millipore filter system. The samples are rinsed twice with 4 ml of ice-cold assay buffer over glass fibre filters (Schleicher & Schuell, Germany) under a constant vacuum. Following separation and rinse, the filters are placed into scintillation liquid (5 ml Ultima Gold, Perkin Elmer, Germany) and radioactivity retained on the filters is determined with a conventional liquid scintillation counter (Can berra Packard, Germany).

Test [2] concerns the target T2, metabotropic glutamate receptor (mGluR5) (Homo sapiens, UniProt P41594). In words: Cytosolic Calcium studies with stably transfected cells (FLIPR, CHO-K1). In kind it is cell-based. On the set-up: expressed in transfected cells; host or cells: CHO-K1 cells, IPTG-inducible expression. As to conditions: CHO-K1 cells expressing human mGluR5; agonist L-quisqualic acid at ~80% of maximal signal; read-out: mGluR5_FLIPR_h_CHO_NAM IC50. Here is the method: Functional Assays of mGluR5 Receptors
Cytosolic Calcium studies with stably transfected cells:
Chinese hamster ovary cells (CHO-K1 cells), stably transfected for inducible expression of a human metabotropic glutamate receptor mGluR5, are seeded into black clear bottom 96 well plates at a density of 35.000 cells per well. The standard growth medium used (Dulbecco's modified Eagle Medium, DMEM plus L-proline) contains the appropriate inducer isopropyl-β-D-thiogalactopyranosid (IPTG) to achieve optimal receptor expression. One day after seeding the growth medium is exchanged for reconstituted Ca-Kit (Molecular Devices, USA) and incubated for one hour. Ca-Kit is reconstituted in an assay buffer containing 20 mM HEPES pH 7.4, glutamic-pyruvate transaminase, pyridoxal phosphate and sodium pyruvate in Hank's balanced salt solution (HBBS). Agonistic compounds to the receptor elicit increases in cytosolic calcium which can be measured as increases in fluorescence signals by use of a fluorescence imaging plate reader (Molecular Devices).
(§1) The fluorescence signal increase after addition of agonist reflects the increase of cytosolic calcium. Inconsistencies in the amount of cells per well are normalised by using the spatial uniformity correction of the FLIPR software. The mean of replicated temporal data (n=3-5) is calculated and used for graphical representation. For the evaluation of the pharmacology, the calcium changes in response to different concentrations of agonist or antagonist are determined using a maximum minus minimum (MaxMin) calculation.
(§2) All responses (RFU-values) are determined as percentage of control (=maximum response). EC50 and IC50 are calculated according the logistic equation using GraFit 5.0 (Erithacus Software, GB) or Prism 4.0 (GraphPad Software, USA). The compounds of the present invention have a potency (IC50) within a range of about […].

The target in test [3] is T3, mGluR5 receptors (Rattus norvegicus, UniProt P31424).
T3 construct: Primary astrocyte cultures are prepared from cortices of newborn rats; endogenous in cells; host or cells: primary cortical astrocytes of Sprague-Dawley rat pups (2-4 d old)
T3 sequence (P31424 21-1203): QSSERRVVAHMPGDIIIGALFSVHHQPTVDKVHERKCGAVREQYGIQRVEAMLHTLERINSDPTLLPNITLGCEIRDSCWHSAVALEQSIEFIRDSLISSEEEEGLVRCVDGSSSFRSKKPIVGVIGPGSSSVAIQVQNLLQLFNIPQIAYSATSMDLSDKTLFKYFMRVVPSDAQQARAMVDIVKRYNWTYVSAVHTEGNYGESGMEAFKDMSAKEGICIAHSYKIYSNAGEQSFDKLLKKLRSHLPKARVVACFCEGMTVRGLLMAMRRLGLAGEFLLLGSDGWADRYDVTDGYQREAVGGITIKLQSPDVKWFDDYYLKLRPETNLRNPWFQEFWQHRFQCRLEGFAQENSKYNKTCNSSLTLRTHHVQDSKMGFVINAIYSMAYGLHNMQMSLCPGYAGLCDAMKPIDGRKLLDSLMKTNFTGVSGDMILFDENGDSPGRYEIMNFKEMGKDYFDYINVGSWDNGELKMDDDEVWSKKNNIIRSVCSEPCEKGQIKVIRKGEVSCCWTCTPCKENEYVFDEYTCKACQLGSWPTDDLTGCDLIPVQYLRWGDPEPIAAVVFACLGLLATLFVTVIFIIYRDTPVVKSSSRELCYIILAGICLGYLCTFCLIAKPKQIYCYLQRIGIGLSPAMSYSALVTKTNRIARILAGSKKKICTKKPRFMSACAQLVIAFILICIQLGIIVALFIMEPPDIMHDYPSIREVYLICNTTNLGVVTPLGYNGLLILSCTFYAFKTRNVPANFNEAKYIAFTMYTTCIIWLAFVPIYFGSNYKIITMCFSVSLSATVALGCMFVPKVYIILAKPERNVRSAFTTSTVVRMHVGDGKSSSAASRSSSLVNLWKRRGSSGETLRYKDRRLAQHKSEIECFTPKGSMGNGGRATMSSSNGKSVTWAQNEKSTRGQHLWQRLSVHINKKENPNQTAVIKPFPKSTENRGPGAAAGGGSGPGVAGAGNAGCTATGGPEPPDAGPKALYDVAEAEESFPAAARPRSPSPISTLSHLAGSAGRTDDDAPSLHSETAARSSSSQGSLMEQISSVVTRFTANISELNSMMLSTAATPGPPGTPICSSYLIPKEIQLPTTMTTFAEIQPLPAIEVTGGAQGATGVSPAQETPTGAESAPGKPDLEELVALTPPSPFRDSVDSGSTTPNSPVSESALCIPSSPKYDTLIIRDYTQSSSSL
In words: Cytosolic Calcium studies with astrocytes (astrocyte culture test, FLIPR). In kind it is cell-based. As to conditions: primary rat cortical astrocytes; L-quisqualate 100 nM; read-out: mGluR5_FLIPRr_rpA IC50. The procedure: Primary astrocyte cultures are prepared from cortices of newborn rats as described by Booher and Sensenbrenner (1972, Neurobiology 2(3):97-105). Briefly, Sprague-Dawley rat pups (2-4 d old) are decapitated and neocortices are dissected, disintegrated with a nylon filter (pore size 80 μm) and carefully triturated. The cell suspension is plated on poly-D-lysine pre-coated flasks (Costar, Netherlands) and cultivated in Dulbecco's Modified Eagle's Medium (DMEM, Invitrogen, Germany) supplemented with 10% foetal calf serum (FCS, Sigma, Germany), 4 mM glutamine and 50 μg/ml gentamycin (both Biochrom, Germany) at 37° C. in a humidified atmosphere of 5% CO2/95% air for 7 d with exchanging the medium at day 2 and 6.
After 7 days in vitro (DIV), cells are shaken overnight at 250 rpm to remove oligodendrocytes and microglia. The next day, astrocytes are rinsed twice with CMF-PBS (calcium- and magnesium-free phosphate buffered saline, Biochrom, Germany), trypsinized and subplated on poly-D-lysine pre-coated 96-well plates (Greiner, Germany) at a density of 40,000 cells/well. 24 h after establishing the secondary culture the astrocytes are rinsed with PBS^++ (phosphate buffered saline, Biochrom, Germany) and fed with astrocyte-defined medium (ADM) consisting of DMEM containing 1×G5-supplement (Invitrogen, Germany), 0.5 μg/ml heparan sulfate, and 1.5 μg/ml fibronectin (both Sigma, Germany) (Miller et al., (1993) Brain Res. 618(1):175-8). 3 d later the medium is exchanged and the cells incubated for another 2-3 d, so that at the time of experiments astrocytes are 14-15 DIV.
Cytosolic Calcium Studies with Astrocytes:
The increase of cytosolic calcium after stimulation with the mGluR5 agonist L-quisqualate is measured using a fluorometric imaging plate reader (FLIPR) and the Ca-Kit (both Molecular Devices). Prior to addition of agonist or antagonist the medium is aspirated and cells are loaded for 2 h at RT with 150 μl of loading buffer consisting of Ca-sensitive dye reconstituted in sodium chloride (123 mM), potassium chloride (5.4 mM), magnesium chloride (0.8 mM), calcium chloride (1.8 mM), D-glucose (15 mM), and HEPES (20 mM), pH 7.3. Subsequently, plates are transferred to FLIPR to detect calcium increase with the addition of L-quisqualate (100 nM) measured as relative fluorescence units (RFU). If antagonists are tested, these compounds are pre-incubated for 10 minutes at RT before addition of the respective agonist.
as §1, §2

Test [4] addresses T2, metabotropic glutamate receptor (mGluR5). In words: Activity as mGluR5 modulator of prior-art compounds (test not described). The settings on record: result in words.

The structures appear in SMILES notation.

T1 sequence (P31424 21-1203): as above
T2 sequence (P41594 21-1212): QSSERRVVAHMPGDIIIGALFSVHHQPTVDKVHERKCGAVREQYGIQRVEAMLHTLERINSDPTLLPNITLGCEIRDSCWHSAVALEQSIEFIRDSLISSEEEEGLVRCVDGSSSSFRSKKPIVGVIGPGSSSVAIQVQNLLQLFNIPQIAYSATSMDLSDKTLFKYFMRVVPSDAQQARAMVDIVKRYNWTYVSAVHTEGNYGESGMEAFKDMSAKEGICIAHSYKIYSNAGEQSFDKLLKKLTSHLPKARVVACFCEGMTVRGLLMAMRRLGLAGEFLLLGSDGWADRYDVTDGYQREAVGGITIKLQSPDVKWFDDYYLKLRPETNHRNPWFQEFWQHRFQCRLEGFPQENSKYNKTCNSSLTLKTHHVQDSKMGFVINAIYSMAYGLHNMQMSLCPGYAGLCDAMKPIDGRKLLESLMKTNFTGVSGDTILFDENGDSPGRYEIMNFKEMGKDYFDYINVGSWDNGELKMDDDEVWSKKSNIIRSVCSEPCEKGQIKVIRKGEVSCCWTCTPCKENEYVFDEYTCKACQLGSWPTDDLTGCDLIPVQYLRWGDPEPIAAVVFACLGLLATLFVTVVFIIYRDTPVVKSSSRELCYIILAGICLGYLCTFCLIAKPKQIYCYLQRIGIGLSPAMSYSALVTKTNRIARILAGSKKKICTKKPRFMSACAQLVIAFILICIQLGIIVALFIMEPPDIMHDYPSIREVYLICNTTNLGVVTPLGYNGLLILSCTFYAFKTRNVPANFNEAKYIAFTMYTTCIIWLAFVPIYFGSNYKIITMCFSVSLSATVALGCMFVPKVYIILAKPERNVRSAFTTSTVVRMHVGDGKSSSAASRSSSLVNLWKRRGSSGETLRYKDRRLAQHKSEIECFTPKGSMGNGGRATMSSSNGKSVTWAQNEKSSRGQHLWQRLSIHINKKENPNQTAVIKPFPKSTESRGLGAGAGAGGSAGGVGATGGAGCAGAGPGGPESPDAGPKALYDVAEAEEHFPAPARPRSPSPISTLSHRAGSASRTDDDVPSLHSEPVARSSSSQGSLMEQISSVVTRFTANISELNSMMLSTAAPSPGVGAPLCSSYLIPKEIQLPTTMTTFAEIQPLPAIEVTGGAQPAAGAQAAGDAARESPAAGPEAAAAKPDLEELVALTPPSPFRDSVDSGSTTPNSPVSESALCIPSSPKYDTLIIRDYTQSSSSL

As to `CC1c2ccc(Br)n2CCN1C(=O)c1cc2ncc(Cl)cn2n1` (stereo not drawn) [Example 37, (6-Bromo-1-methyl-3,4-dihydro-1H-pyrrolo[1,2-a]pyrazin-2-yl)-(6-chloro-pyrazolo[1,5-a]pyrimidin-2-yl)-methanone], the IC50 in test [1] was 73 nM; in test [2], 34.2 nM; in test [3], 17 nM.
With `Cc1ccc2n1CCN(C(=O)c1cc3ncc(Cl)cn3n1)C2C` (stereo not drawn) [Example 5, (6-Chloro-pyrazolo[1,5-a]pyrimidin-2-yl)-(1,6-dimethyl-3,4-dihydro-1H-pyrrolo[1,2-a]pyrazin-2-yl)-methanone], the IC50 in test [1] is 274 nM; in test [2] it was 327 nM; in test [3], 87.3 nM.
With `CC1c2ccc(Br)n2CCN1C(=O)c1cc2ncc(Br)cn2n1` (stereo not drawn) [Example 39, (6-Bromo-1-methyl-3,4-dihydro-1H-pyrrolo[1,2-a]pyrazin-2-yl)-(6-bromo-pyrazolo[1,5-a]pyrimidin-2-yl)-methanone], the values for the IC50 in test [1], in test [2] and in test [3] were 54.9 nM, 74.5 nM and 15 nM, respectively.
Turning to `O=C(c1cc2ncc(Br)cn2n1)N1CCc2ccccc2C1` [M, (6-Bromo-pyrazolo[1,5-a]pyrimidin-2-yl)-(1,2,3,4-tetrahydro-isoquinolin-2-yl)-methanone], in test [4], the “activity as metabotropic glutamate receptor (mGluR5) modulator” value is “only a limited activity” and the selectivity entry is “not selective”.
In the case of `O=C(c1cc2ncc(Br)cn2n1)N1CCOCC1` [Example B310, (6-Bromopyrazolo[1,5-a]pyrimidin-2-yl)-morpholin-4-yl-methanone], the “activity as metabotropic glutamate receptor (mGluR5) modulator” value in test [4] is recorded as “no particular activity”.
The same measure, in the same setting: then `O=C(c1cc2ncc(Br)cn2n1)N1CCCCC1` [Example B308, (6-Bromopyrazolo[1,5-a]pyrimidin-2-yl)-piperidin-1-yl-methanone], with “no particular activity”.
On to `CN1c2ccccc2CCN1C(=O)c1cc2ncc(Br)cn2n1` [Example 182, (6-Bromo-pyrazolo[1,5-a]pyrimidin-2-yl)-(1-methyl-3,4-dihydro-1H-cinnolin-2-yl)-methanone], for which the IC50 stood at 281 nM in test [1], 189 nM in test [2] and 63.7 nM in test [3].
As for `C[C@@H]1c2ccc(Cl)n2CCN1C(=O)c1cc2ncc(Br)cn2n1` [(R)-(6-Bromo-pyrazolo[1,5-a]pyrimidin-2-yl)-(6-chloro-1-methyl-3,4-dihydro-1H-pyrrolo[1,2-a]pyrazin-2-yl)-methanone], the IC50 amounted to 24.5 nM in test [2] and 7.8 nM in test [3].
Consider `CC1c2ccc(Cl)n2CCN1C(=O)c1cc2ncc(Br)cn2n1` (stereo not drawn) [Example 31, (6-Chloro-1-methyl-3,4-dihydro-1H-pyrrolo[1,2-a]pyrazin-2-yl)-(6-bromo-pyrazolo[1,5-a]pyrimidin-2-yl)-methanone], for which the IC50 in test [1] is 44.5 nM; in test [2] it was 84.4 nM; in test [3], 22.5 nM.
On the same counts, the results for `CC1c2ccc(Cl)n2CCN1C(=O)c1cc2ncc(Cl)cn2n1` (stereo not drawn) [Example 29, (6-Chloro-1-methyl-3,4-dihydro-1H-pyrrolo[1,2-a]pyrazin-2-yl)-(6-chloro-pyrazolo[1,5-a]pyrimidin-2-yl)-methanone] are 42 nM, 91 nM and 21.9 nM.
With `Cc1ccc2n1CCN(C(=O)c1cc3ncc(Br)cn3n1)C2C` (stereo not drawn) [Example 7, (6-Bromo-pyrazolo[1,5-a]pyrimidin-2-yl)-(1,6-dimethyl-3,4-dihydro-1H-pyrrolo[1,2-a]pyrazin-2-yl)-methanone], the IC50 in test [1] turned out to be 219 nM; in test [2], 222 nM; in test [3] it was 50 nM.
The matching figures for `CN1c2ccccc2CCN1C(=O)c1cc2ncc(Cl)cn2n1` [Example 181, (6-Chloro-pyrazolo[1,5-a]pyrimidin-2-yl)-(1-methyl-3,4-dihydro-1H-cinnolin-2-yl)-methanone]: 247 nM, 166 nM and 82.3 nM.
Take `Cc1ccc2n1CCN(C(=O)c1cc3ncc(Br)cn3n1)[C@@H]2C` [(R)-(6-Bromo-pyrazolo[1,5-a]pyrimidin-2-yl)-(1,6-dimethyl-3,4-dihydro-1H-pyrrolo[1,2-a]pyrazin-2-yl)-methanone]: the values for the IC50 in test [1], in test [2] and in test [3] were 74 nM, 118 nM and 34.3 nM, respectively.
